What all share (assay): NCI tumour cell line growth inhibition, 48 h
In assay [1] the test system is A549.
The test system of assay [2] is HCC 2998.
In assay [3] the test system is UACC-62.
Assay [4] deals with ACHN.
Assay [5] has as its system NCI-H460.
The subject of assay [6] is SNB-75.
For assay [7], the system named is K562.
The subject of assay [8] is SF-539.
Assay [9] concerns 786-0.
In assay [10] the test system is RPMI-8226.
The test system of assay [11] is A498.
Assay [12] relates to HCT-15.
For assay [13], the system named is OVCAR-5.
Assay [14] deals with TK-10.
Assay [15] deals with RXF 393.
In assay [16] the test system is NCI-H23.
In assay [17] the test system is UACC-257.
Assay [18] deals with OVCAR-3.

Structures are written as SMILES.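 Exposure lasted 48 hours, with cells grown in 96-well plates and compounds tested at five concentrations. Here, GI50 denotes the concentration required for 50% inhibition of growth.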 Calls of active or inactive are those of the source. Cut-off read from the data, not from the text of the source: active = GI50 up to about 1.1 µM and inactive = higher.

Turning to `Cc1cc(C(O)CCCc2ccccc2)cc(C)c1O` (configuration not stated), the GI50 in assay [1] was 32.7 µM (inactive); in [2], 74.1 µM (inactive); in assay [3], 35.9 µM (inactive); in assay [4], 24.2 µM (inactive); in [5] it was 36.6 µM (inactive); in assay [6] it was 16.4 µM (inactive). For the same compound, the GI50 was 28.6 µM (inactive) in assay [7]; 38.2 µM (inactive) in assay [8]; 40.6 µM (inactive) in assay [9]; 24.1 µM (inactive) in assay [10]; 24.5 µM (inactive) in [11]; 45.9 µM in assay [12]. For the same compound, the GI50 was 43.9 µM (inactive) in assay [13]; 31.6 µM (inactive) in assay [14]; 12 µM (inactive) in assay [15]; 39.8 µM (inactive) in assay [16]; 25.8 µM (inactive) in assay [17]; 31.1 µM (inactive) in [18].

As for `O=C(Nc1nc2ncn(CCOC(=O)c3ccccc3)c2c(=S)[nH]1)c1ccccc1`, the GI50 in assay [1] is 66.2 µM (inactive); in [2] it was > 100 µM (inactive); in [3], 56.2 µM (inactive); in assay [4], > 100 µM (inactive); in assay [5] it was 48.1 µM (inactive); in [6], 23.8 µM (inactive). Also, the GI50 is 60.8 µM (inactive) in assay [7]; 30.5 µM (inactive) in assay [8]; 62.5 µM (inactive) in assay [9]; > 100 µM (inactive) in [10]; 95.7 µM (inactive) in assay [11]; greater than 100 µM in assay [12]. Besides, the GI50 in [13] is > 100 µM (inactive); in [14], > 100 µM (inactive); in assay [15], 18.6 µM (inactive); in [17], 55.8 µM (inactive); in assay [18] it was 43.1 µM (inactive).

`Cc1nc2c(nc1C)C(=O)C1=C(C2=O)C2C=CC1CC2`: the GI50 in [1] is 19.4 µM (inactive); in assay [2], 29.4 µM (inactive); in assay [3] it was 2.86 µM (inactive); in assay [4], 11.7 µM (inactive); in assay [5] it was 17.9 µM (inactive); in assay [6], 28.6 µM (inactive). Also, the GI50 in assay [7] is 2.48 µM (inactive); in [8], 13.8 µM (inactive); in assay [9], 11.9 µM (inactive); in assay [10] it was 2.17 µM (inactive); in assay [11] it was 41.9 µM (inactive); in assay [12], 15.1 µM. The GI50 was 21.3 µM (inactive) in assay [13]; 28.8 µM (inactive) in [14]; 6.79 µM (inactive) in [15]; 4.04 µM (inactive) in [16]; 4.31 µM (inactive) in assay [17]; 5.83 µM (inactive) in assay [18].

Regarding `Cc1cn2c(=O)c3ccccc3nc2s1`, the GI50 in assay [1] was > 100 µM (inactive); in assay [2], > 100 µM (inactive); in assay [3], > 100 µM (inactive); in assay [4], > 100 µM (inactive); in assay [5], > 100 µM (inactive); in assay [6] it was 92.3 µM (inactive). In addition, the GI50 was > 100 µM (inactive) in assay [7]; 88.7 µM (inactive) in assay [8]; > 100 µM (inactive) in [9]; > 100 µM (inactive) in assay [10]; > 100 µM (inactive) in assay [11]; > 100 µM (inactive) in assay [13]. In addition, the GI50 in assay [14], in assay [15], in assay [16], in [17] and in [18] was > 100 µM (inactive) each time.

In the case of `CC1=C(C)C(=O)c2c(cc3ccccn23)C1=O`, the GI50 is 18.4 µM (inactive) in assay [1]; 15.5 µM (inactive) in assay [2]; 15.6 µM (inactive) in assay [3]; 32.2 µM (inactive) in assay [4]; 15.5 µM (inactive) in assay [5]; 26.4 µM (inactive) in assay [6]. In addition, the GI50 in [7] is 27.5 µM (inactive); in [8], 20 µM (inactive); in [9] it was 27.9 µM (inactive); in assay [10], 15.8 µM (inactive); in assay [11], 21.2 µM (inactive); in assay [12], 14.4 µM. The GI50 was 45.6 µM (inactive) in assay [13]; 27 µM (inactive) in assay [14]; 14.7 µM (inactive) in assay [15]; 10.2 µM (inactive) in assay [16]; 14.6 µM (inactive) in assay [18].

The values above are taken from ChEMBL document CHEMBL1201862, “PubChem BioAssay data set” (2004).
